The text below walks through data of US12606561B2, “Substituted pyrazolo[1,5-a][1,3,5]triazines as CDK inhibitors” (QURIENT CO., LTD., priority 2018, dated 2026).

Where two headings read alike, the source gives them in different places.

Common to all, as to format: biochemical
The target of one assay is T1, CDK2/Cyclin A (Homo sapiens, UniProt P24941).
T1 construct: purchased Invitrogen PV6290
The assay can be described thus: Enzymatic assay for CDK2 (LANCE Ultra kinase assay, FRET based). The settings on record: ATP at Km. In short, it runs like this:
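Inhibition was measured at ATP Km with 68 nM ULight-MBP peptide and CDK2/Cyclin A ([…]) or CDK5/p25 ([…]), using 8-dose 4-fold compound dilutions from DMSO. Kinase reaction ran 60 min at 23° C, then Eu anti-phospho-MBP plus EDTA were added for another 60 min before the fluorescence read.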
(In general: In TR-FRET formats the signal depends on donor and acceptor labels being close together.)

Assay [1] addresses T2, 28 CDKs family protein kinases (Homo sapiens, UniProt Q00536).
T2 construct: purchased ProQinase GmbH; host or cells: Sf9 insect cells or E. coli
Put plainly: In vitro IC50 profile for CDKs family kinase (33PanQinase Activity Assay, ProQinase). The settings on record: CDK16/CycY; read-out: CDK7 selectivity profile in CDKs family, IC50. How it is done:
(§1) The IC50 profile of compound 11 was determined using 28 CDKs family protein kinases through ProQinase GmbH (Freiburg, Germany). All the protocol and materials had been provided by ProQinase GmbH. Briefly, in the process, 90 μl H2O were added to each well of a compound dilution plate. To minimize potential precipitation, the H2O was added to the plate only a few minutes before the transfer of the compound solutions into the assay plates. The plate was shaken thoroughly, resulting in a “compound dilution plate/10% DMSO”. The compound dilution plate(s) were discarded at the end of the working day. For the assays (see below), 5 μl solution from each well of the compound dilution plate were transferred into the assay plates. The final volume of the assay was 50 μl. All compounds were tested at 10 final assay concentrations in the range from 1×10^−05 M to 3×10^−10 M. The final DMSO concentration in the reaction cocktails was 1% in all cases. All protein kinases provided by ProQinase were expressed in Sf9 insect cells or in E. coli as recombinant GST-fusion proteins or His-tagged proteins, either as full-length or enzymatically active fragments. All kinases were produced from human cDNAs and purified by either GSH affinity chromatography or immobilized metal affinity chromatography. The purity of the protein kinases was examined by SDS-PAGE/Coomassie staining, the identity was checked by mass spectroscopy. Kinases from external vendors, Carna Biosciences Inc.; Invitrogen Corp.; and Millipore Corp., were expressed, purified and quality-controlled by virtue of the vendors readings. A radiometric protein kinase assay (33PanQinase® Activity Assay) was used for measuring the kinase activity of the 28 protein kinases. All kinase assays were performed in 96-well FlashPlates™ from PerkinElmer (Boston, MA, USA) in a 50 μl reaction volume. The reaction cocktails were incubated at 30° C. for 60 minutes. The reaction was stopped with 50 μl of 2% (v/v) H3PO4, plates were aspirated and washed two times with 200 μl 0.9% (w/v) NaCl. Incorporation of ^33Pi was determined with a microplate scintillation counter (Microbeta, Wallac). All assays were performed with a BeckmanCoulter/SAGIAN™ Core System. As part of the data evaluation the low control value from a particular plate was subtracted from the high control value as well as from all 80 “compound values” of the corresponding plate. The residual activity (in %) for each well of a particular plate was calculated by using the following formula: Res. Activity (%)=100×[(cpm of compound−low control)/(high control−low control)].

Assay [2] deals with T3, 28 CDKs family protein kinases (Homo sapiens, UniProt P49336).
T3 construct: purchased ProQinase GmbH; host or cells: Sf9 insect cells or E. coli
Described as above. The settings on record: CDK8/CycC; read-out: CDK7 selectivity profile in CDKs family, IC50. How it is done:
as §1

Assay [3] deals with T4, 28 CDKs family protein kinases (Homo sapiens, UniProt P11802).
T4 construct: purchased ProQinase GmbH; host or cells: Sf9 insect cells or E. coli
Described as above. The settings on record: read-out: CDK7 selectivity profile in CDKs family, IC50. Here is the method: as §1

For assay [4], the target named is T5, 28 CDKs family protein kinases (Homo sapiens, UniProt Q9NYV4).
T5 construct: purchased ProQinase GmbH; host or cells: Sf9 insect cells or E. coli
The description is as above. The settings on record: CDK12wt/CycK; read-out: CDK7 selectivity profile in CDKs family, IC50. Here is the method:
as §1

Assay [5] deals with T6, 28 CDKs family protein kinases (Homo sapiens, UniProt Q00534).
T6 construct: purchased ProQinase GmbH; host or cells: Sf9 insect cells or E. coli
The assay is described as above. The settings on record: read-out: CDK7 selectivity profile in CDKs family, IC50. How it is done: as §1

Assay [6] deals with T7, 28 CDKs family protein kinases (Homo sapiens, UniProt P06493).
T7 construct: purchased ProQinase GmbH; host or cells: Sf9 insect cells or E. coli
The description is as above. The following applies: read-out: CDK7 selectivity profile in CDKs family, IC50. How it is done: as §1

For assay [7], the target named is T8, 28 CDKs family protein kinases (Homo sapiens, UniProt P24941).
T8 construct: purchased ProQinase GmbH; host or cells: Sf9 insect cells or E. coli
The assay is described as above. The settings on record: read-out: CDK7 selectivity profile in CDKs family, IC50. How it is done:
as §1

Assay [8] addresses T9, 28 CDKs family protein kinases (Homo sapiens, UniProt P50750).
T9 construct: purchased ProQinase GmbH; host or cells: Sf9 insect cells or E. coli
The description is as above. The following applies: read-out: CDK7 selectivity profile in CDKs family, IC50. Here is the method:
as §1

The target in assay [9] is T10, 28 CDKs family protein kinases (Homo sapiens, UniProt Q07002).
T10 construct: purchased ProQinase GmbH; host or cells: Sf9 insect cells or E. coli
The assay is described as above. The settings on record: CDK18/CycY; read-out: CDK7 selectivity profile in CDKs family, IC50. Here is the method:
as §1

T3 sequence (P49336 whole entry): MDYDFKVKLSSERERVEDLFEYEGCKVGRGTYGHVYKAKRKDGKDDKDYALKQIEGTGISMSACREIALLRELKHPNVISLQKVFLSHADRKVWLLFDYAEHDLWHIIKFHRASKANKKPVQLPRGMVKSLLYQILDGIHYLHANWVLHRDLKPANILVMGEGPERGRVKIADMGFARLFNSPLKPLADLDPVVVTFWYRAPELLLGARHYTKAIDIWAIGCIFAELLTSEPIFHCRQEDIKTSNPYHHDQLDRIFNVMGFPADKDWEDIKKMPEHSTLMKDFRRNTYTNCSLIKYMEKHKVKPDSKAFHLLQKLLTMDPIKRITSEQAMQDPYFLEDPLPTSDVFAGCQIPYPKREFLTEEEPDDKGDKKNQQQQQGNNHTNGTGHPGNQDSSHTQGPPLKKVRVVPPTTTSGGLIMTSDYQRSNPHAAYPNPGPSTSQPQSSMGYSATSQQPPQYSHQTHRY
T3 sequence (P24863 whole entry partner): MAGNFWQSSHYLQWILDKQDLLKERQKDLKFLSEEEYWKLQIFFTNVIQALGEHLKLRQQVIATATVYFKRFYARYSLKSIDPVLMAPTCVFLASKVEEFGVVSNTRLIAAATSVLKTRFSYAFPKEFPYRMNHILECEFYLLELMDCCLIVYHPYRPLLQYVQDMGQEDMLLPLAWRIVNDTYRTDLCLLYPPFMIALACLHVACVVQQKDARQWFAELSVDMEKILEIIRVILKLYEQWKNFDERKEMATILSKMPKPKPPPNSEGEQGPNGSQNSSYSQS
T5 sequence (Q9NYV4 whole entry): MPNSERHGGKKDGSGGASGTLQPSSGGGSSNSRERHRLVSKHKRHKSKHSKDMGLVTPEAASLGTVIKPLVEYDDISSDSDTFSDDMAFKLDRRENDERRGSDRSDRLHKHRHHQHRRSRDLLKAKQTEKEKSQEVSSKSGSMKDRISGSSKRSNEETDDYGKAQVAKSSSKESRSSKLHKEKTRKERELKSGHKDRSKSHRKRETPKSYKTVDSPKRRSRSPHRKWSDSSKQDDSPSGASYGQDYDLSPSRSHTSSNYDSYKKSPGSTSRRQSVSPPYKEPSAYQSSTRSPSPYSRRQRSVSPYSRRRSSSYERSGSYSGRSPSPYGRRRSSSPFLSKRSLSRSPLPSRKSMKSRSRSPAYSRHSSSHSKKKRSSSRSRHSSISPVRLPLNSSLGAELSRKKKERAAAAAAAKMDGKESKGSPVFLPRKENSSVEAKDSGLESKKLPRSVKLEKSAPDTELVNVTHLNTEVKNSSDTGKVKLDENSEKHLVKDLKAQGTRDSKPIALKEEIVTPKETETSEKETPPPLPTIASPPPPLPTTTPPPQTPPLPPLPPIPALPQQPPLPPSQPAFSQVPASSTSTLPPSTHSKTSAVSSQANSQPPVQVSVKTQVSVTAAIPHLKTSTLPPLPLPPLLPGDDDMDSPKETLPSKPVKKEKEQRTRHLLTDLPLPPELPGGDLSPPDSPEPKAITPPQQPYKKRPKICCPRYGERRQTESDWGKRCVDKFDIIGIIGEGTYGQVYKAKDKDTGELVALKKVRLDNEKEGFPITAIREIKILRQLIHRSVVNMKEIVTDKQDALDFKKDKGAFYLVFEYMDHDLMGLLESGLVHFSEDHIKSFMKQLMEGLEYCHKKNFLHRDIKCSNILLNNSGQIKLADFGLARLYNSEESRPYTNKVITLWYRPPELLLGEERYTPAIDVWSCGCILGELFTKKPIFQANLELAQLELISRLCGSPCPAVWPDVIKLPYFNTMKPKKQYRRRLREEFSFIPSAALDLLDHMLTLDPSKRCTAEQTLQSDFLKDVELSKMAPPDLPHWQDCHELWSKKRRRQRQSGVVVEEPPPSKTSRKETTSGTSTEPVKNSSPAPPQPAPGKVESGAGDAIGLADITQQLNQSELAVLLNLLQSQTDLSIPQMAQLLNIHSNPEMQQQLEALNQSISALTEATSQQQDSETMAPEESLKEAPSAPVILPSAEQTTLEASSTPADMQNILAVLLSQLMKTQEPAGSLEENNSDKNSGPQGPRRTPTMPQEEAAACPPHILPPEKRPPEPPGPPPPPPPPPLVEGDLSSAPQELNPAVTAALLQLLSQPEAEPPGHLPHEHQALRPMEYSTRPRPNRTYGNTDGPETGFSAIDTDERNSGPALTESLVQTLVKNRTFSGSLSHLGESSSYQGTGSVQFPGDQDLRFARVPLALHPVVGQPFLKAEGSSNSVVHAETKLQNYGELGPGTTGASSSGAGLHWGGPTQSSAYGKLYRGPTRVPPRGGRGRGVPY
T5 sequence (O75909 whole entry partner): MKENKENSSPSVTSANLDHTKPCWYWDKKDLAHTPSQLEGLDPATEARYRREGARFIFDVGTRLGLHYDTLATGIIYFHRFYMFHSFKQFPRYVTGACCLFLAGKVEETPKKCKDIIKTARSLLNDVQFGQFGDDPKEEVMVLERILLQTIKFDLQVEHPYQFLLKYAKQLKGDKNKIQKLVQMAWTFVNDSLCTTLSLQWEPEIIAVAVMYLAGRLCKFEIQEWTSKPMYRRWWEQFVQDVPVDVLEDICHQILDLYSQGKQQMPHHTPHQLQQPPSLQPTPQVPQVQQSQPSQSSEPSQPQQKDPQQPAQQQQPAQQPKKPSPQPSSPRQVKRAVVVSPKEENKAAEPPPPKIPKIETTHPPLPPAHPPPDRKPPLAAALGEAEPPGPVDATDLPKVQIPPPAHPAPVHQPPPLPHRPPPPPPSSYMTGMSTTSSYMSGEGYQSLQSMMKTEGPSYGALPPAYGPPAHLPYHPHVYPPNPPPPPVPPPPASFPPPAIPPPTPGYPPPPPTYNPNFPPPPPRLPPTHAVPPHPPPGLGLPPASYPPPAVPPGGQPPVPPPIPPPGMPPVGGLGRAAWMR
T2 sequence (Q00536 whole entry): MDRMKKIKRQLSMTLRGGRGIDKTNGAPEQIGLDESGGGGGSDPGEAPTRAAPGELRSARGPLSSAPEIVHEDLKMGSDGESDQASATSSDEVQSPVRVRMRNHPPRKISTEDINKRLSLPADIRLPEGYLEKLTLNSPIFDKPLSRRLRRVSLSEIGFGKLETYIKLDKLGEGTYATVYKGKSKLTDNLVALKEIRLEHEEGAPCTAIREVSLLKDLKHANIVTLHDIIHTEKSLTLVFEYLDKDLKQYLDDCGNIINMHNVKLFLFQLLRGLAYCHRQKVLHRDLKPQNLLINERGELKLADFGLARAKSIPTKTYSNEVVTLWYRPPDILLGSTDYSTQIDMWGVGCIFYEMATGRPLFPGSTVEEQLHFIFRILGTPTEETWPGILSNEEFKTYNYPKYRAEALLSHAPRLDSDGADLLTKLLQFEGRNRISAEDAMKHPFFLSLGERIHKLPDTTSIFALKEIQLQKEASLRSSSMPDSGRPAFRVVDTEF
T2 sequence (Q8ND76 whole entry partner): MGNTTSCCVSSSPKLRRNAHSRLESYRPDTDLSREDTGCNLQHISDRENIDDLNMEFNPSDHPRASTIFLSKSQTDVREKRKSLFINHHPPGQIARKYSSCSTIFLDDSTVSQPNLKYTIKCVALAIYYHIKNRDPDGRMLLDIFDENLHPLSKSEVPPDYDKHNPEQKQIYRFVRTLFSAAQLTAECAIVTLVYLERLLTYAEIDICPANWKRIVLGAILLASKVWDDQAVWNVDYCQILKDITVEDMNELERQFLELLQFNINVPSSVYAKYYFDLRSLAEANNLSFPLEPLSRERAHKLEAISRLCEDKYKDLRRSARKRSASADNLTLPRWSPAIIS
T7 sequence (P06493 whole entry): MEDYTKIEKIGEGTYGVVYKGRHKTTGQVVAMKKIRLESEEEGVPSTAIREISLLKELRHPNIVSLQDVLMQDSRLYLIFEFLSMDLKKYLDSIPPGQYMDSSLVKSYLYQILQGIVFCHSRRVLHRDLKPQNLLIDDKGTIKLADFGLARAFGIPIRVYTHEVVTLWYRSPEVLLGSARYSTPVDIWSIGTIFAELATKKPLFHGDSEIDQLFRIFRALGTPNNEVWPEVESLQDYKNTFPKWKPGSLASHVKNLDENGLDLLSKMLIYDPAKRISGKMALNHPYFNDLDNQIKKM
T7 sequence (P14635 whole entry partner): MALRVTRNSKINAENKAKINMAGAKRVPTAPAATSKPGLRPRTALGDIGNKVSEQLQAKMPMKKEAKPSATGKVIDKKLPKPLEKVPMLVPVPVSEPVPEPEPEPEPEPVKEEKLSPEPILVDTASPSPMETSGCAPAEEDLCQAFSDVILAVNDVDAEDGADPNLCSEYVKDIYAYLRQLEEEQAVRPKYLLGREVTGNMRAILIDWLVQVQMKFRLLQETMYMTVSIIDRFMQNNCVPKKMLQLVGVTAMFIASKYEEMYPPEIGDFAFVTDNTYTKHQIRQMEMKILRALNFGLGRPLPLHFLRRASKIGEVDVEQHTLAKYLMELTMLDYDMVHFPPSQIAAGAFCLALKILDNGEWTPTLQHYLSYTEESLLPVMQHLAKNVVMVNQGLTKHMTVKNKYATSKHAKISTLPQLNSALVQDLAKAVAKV
T10 sequence (Q07002 whole entry): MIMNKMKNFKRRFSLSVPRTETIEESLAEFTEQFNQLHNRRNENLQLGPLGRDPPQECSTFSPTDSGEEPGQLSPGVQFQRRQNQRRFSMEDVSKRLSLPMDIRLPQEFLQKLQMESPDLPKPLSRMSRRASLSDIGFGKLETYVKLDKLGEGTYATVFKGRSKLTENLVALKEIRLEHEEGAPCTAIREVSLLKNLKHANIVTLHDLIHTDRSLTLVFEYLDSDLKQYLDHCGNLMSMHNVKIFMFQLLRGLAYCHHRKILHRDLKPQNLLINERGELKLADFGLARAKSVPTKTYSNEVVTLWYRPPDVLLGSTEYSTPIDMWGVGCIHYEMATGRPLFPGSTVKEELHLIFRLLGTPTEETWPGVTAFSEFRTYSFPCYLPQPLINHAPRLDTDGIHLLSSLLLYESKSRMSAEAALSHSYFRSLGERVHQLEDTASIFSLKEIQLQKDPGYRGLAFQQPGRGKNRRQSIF
T10 sequence (Q8ND76 whole entry partner): as the sequence (Q8ND76 whole entry partner) above

A word on the IC50: it is the point on the concentration scale where inhibition reaches its midpoint. In the case of `CC(C)c1cnn2c(NCc3ccccc3-c3nccc4cc(NC(=O)/C=C/CN(C)C)ccc34)nc(N3CCC(N)CC3)nc12` [Compound 11], the IC50 was above 1000 nM against CDK2/Cyclin A; above 10 µM in assay [1]; above 10 µM in [2]; above 10 µM in assay [3] (CDK4/CycD1); above 10 µM in assay [3] (CDK4/CycD2); above 10 µM in [3] (CDK4/CycD3). The IC50 in assay [4], in assay [5] (CDK6/CycD1), in assay [5] (CDK6/CycD2), in [5] (CDK6/CycD3), in assay [6] (CDK1/CycA2) and in assay [6] (CDK1/CycB1) was above 10 µM in each case. Also, the IC50 in assay [6] (CDK1/CycE1), in [7] (CDK2/CycA2), in [7] (CDK2/CycD1), in assay [7] (CDK2/CycE1), in assay [8] (CDK9/CycK) and in [8] (CDK9/CycT1) was above 10 µM each time. Further, in [9], the IC50 was above 10 µM.
